Data published in US8410302B2, “Methoxyimino compounds and fungicide composition comprising same” (Kyung Nong Corporation, priority 2007, dated 2013).
Like-named read-outs stand apart in the source and are kept apart here.

Key:
[1] = tested on: Pyricularia oryzae Carvara KA301; assay: whole plant or invertebrate; assay type: in vivo; conditions: Pyricularia oryzae, read-out: RCB control value (C.V.)
Botrytis cinerae = assay: Fungicidal activity against cucumber gray mold rot (CGM) disease, control value; assay type: in vivo; conditions: Botrytis, 100 ppm, read-out: CGM control value (C.V.)
Phytophthora infestans = assay: whole plant or invertebrate; assay type: in vivo; conditions: Phytophthora infestans, in Solanum lycopersicum, read-out: TLB control value (C.V.)
Puccinia recondita = assay: Fungicidal activity against wheat leaf rust (WLR) disease, control value; assay type: in vivo; conditions: read-out: WLR control value (C.V.)
Erysiphae graminis = assay: Fungicidal activity against barley powdery mildew (BPM) disease, control value; assay type: in vivo; conditions: 168 h, read-out: BPM control value (C.V.)
Rhizoctonia solani AG-1 = assay: Fungicidal activity against rice sheath blight (RSB) disease, control value; conditions: Rhizoctonia solani, AG1, in Oryza sativa, read-out: RSB control value (C.V.)
[2] = Hordeum vulgare, barley powdery mildew

Row | SMILES | pest or weed control at 2 ppm [1] | pest or weed control at 10 ppm [1] | pest or weed control at 50 ppm [1] | pest or weed control at 100 ppm [1] | pest or weed control at 100 ppm (Botrytis cinerae) | pest or weed control at 2 ppm (Phytophthora infestans) | pest or weed control at 10 ppm (Phytophthora infestans) | pest or weed control at 50 ppm (Phytophthora infestans) | pest or weed control at 100 ppm (Phytophthora infestans) | pest or weed control at 2 ppm (Puccinia recondita; Puccinia recondita) | pest or weed control at 10 ppm (Puccinia recondita; Puccinia recondita) | pest or weed control at 50 ppm (Puccinia recondita; Puccinia recondita) | pest or weed control at 100 ppm (Puccinia recondita; Puccinia recondita) | pest or weed control at 2 ppm (Erysiphae graminis) | pest or weed control at 10 ppm (Erysiphae graminis) | pest or weed control at 50 ppm (Erysiphae graminis) | pest or weed control at 2 ppm (Rhizoctonia solani AG-1) | pest or weed control at 10 ppm (Rhizoctonia solani AG-1) | pest or weed control at 50 ppm (Rhizoctonia solani AG-1) | pest or weed control at 100 ppm (Rhizoctonia solani AG-1) | other results
1 | CO/N=C(/C(=O)OC)c1ccccc1COc1ccc(F)cc1C=C(Br)Br [Example 79, methyl-(E)-2-(2-((2-(2,2-dibromovinyl)-4-fluorophenoxy)methyl)phenyl)-2-methoxyiminoacetate] | 80% | 98% | 100% | 100% | 40% | 70% | 90% | 98% | 100% | 95% | 100% | 100% | 100% | 90% | 100% | 100% | 85% | 98% | 100% | 100% | pest or weed control at 100 ppm (Erysiphae graminis): 100%
2 | CNC(=O)/C(=N/OC)c1ccccc1COc1cc(Br)ccc1C=C(Br)Br [Example 86, (E)-2-(2-((5-bromo-2-(2,2-dibromovinyl)phenoxy)methyl)phenyl)-2-methoxyimino-N-methylacetamide] | 30% | 90% | 100% | 100% | 40% | 70% | 90% | 98% | 100% | 95% | 100% | 100% | 100% | 90% | 100% | 100% | 65% | 98% | 100% | 100% | pest or weed control at 100 ppm (Erysiphae graminis): 100%
3 | CO/N=C(/C(=O)OC)c1ccccc1COc1cccc(C=C(F)Cl)c1 [Example 11, methyl-(2E)-2-(2-((3-(2-chloro-2-fluorovinyl)phenoxy)methyl)phenyl)-2-methoxyiminoacetate] | – | – | 70% | 95% | – | – | – | – | 60% | – | – | – | – | – | – | – | – | – | – | 30% | pest or weed control at 100 ppm (Botrytis cinerae; cucumber gray mold rot): 43%; pest or weed control at 10 ppm (Puccinia recondita; wheat leaf rust): 40%; pest or weed control at 50 ppm (Puccinia recondita; wheat leaf rust): 90%; pest or weed control at 100 ppm (Puccinia recondita; wheat leaf rust): 100%; pest or weed control at 50 ppm (Erysiphae graminis; [2]): 60%; pest or weed control at 100 ppm (Erysiphae graminis; [2]): 90%
4 | CO/N=C(/C(=O)OC)c1ccccc1COc1ccc(C=C(Cl)Cl)cc1Br [Example 53, methyl-(E)-2-(2-((2-bromo-4-(2,2-dichlorovinyl)phenoxy)methyl)phenyl)-2-methoxyiminoacetate] | 70% | 97% | 100% | 100% | – | 90% | 99% | 100% | 100% | 100% | – | – | – | 100% | – | – | 85% | 98% | 100% | 100% | pest or weed control at 100 ppm (Botrytis cinerae; cucumber gray mold rot): 50%; pest or weed control at 10 ppm (Puccinia recondita; wheat leaf rust): 100%; pest or weed control at 50 ppm (Puccinia recondita; wheat leaf rust): 100%; pest or weed control at 100 ppm (Puccinia recondita; wheat leaf rust): 100%; pest or weed control at 10 ppm (Erysiphae graminis; [2]): 100%; pest or weed control at 50 ppm (Erysiphae graminis; [2]): 100%; pest or weed control at 100 ppm (Erysiphae graminis; [2]): 100%
